For one test, the system named is TKCC10 human PDX tumors. Put plainly: TKCC10 human model, FITC-dextran perfusion (Extended Data Fig. 5f). In kind it is in vivo, mouse. The note with it: for FITC-dextran (10 kDa) signal quantification: Extended Data 5F, human PDXs, individual FOV. The procedure:
Subcutaneous PDX studies were performed by implanting early passage PDX pieces (~4 mm^3) or TKCC10 CCs (1.5 × 10^6 cells per mouse in 100 μl PBS/Matrigel 1:1) into female (PDX) or male (TKCC10) 8-week-old immunocompromised nude Balb/c-Fox1nuAusb mice subcutaneously on the left flank. For the duration of the study, mice were kept in conventional caging with environmental enrichment, access to standard chow, water ad libitum and 12-h light–dark cycle at ambient temperature and humidity. Treatment began when tumors reached 150 mm^3, where each mouse was randomized into a treatment group and administered gemcitabine HCl (100 mg kg^−1 in saline) (Jomar Life Research) or vehicle control (0.9% saline) by i.p. injection twice weekly on day 2 and 4 of the treatment cycle until an ethical end point was reached. These included maximal tumor mass ≥10% of body weight, weight loss ≥20% from maximum body weight or tumor interfering with mobility and affecting access to food and water. […] Tumor size was monitored every second day by calipers. Tumor volume was calculated using the formula (length × width^2)/2. […]
FITC-dextran (10 kDa) was administered at 40 mg ml^−1 in saline via tail vain 2 h before culling. […] Images were quantified using Fiji Software for Integrated Density Signal.
(§1) Extended Data Fig. 5 PXS-5505 in combination with gemcitabine in vivo. a. […] Signal is defined as the enzyme activity in the aorta, while noise is measured in the presence of a high concentration (300 µM) BAPN to abolish any lysyl oxidase family activity. […] FITC-dextran (molecular weight: 10 kDa) signal quantification from KPC tumor end point from each treatment group (vehicle n = 3 biologically independent animals, PXS-5505 n = 5 biologically independent animals, Gem n = 5 biologically independent animals, PXS-5505 + Gem n = 5 biologically independent animals). […] P-values determined by Welchs t-test. […] Quantification of red birefringent (mature) collagen fibers from human PDXs at end point after 3 cycles of treatment, treated as indicated. […] P values determined by Welchs t-test. g. […]

For a further test, the system named is APMA human PDX tumors. Put plainly: APMA human PDX model, bulk modulus by unconfined compression (Extended Data Fig. 5j). Type of test: in vivo, mouse. On the set-up: Bulk modulus (stiffness) by unconfined compression testing: unit: kPa (bulk elastic modulus, slope of stress–strain curve). To be noted: for Bulk modulus (stiffness) by unconfined compression testing: Extended Data 5J, endpoint human PDX tumours (second model), individual animals. The procedure: Unconfined compression of in vivo tissue samples was carried out on 2–3-mm cross-sectional slices using a TA Instruments Dynamic Hybrid Rheometer (DHR-3, TA Instruments). Tissue samples were placed between upper and lower parallel plate geometries. A constant linear compressive rate of 5 µm s^−1 was applied to the samples and axial force (N) and gap (mm) were collected every 0.01 s. Data were processed and a stress–strain curve for each replicate was obtained. Bulk elastic modulus (kPa) was obtained as the gradient of the linear region of the stress–strain curve corrected for cross-sectional area of sample. Data points represent individual biological replicates.
Subcutaneous PDX studies were performed by implanting early passage PDX pieces (~4 mm^3) or TKCC10 CCs (1.5 × 10^6 cells per mouse in 100 μl PBS/Matrigel 1:1) into female (PDX) or male (TKCC10) 8-week-old immunocompromised nude Balb/c-Fox1nuAusb mice subcutaneously on the left flank. For the duration of the study, mice were kept in conventional caging with environmental enrichment, access to standard chow, water ad libitum and 12-h light–dark cycle at ambient temperature and humidity. […] Tumor size was monitored every second day by calipers. Tumor volume was calculated using the formula (length × width^2)/2. […]
as §1

Where “and” joins values, the source holds several entries; their conditions need not be identical. Equal values may be shown once.

As to `Cl.Cl.NC/C=C(\F)CS(=O)(=O)c1cccc2cccnc12.O` [PXS-5505, (Z)-3-fluoro-4-(quinolin-8-ylsulfonyl)but-2-en-1-amine dihydrochloride monohydrate], the “FITC-dextran (10 kDa) signal quantification” value in the test on TKCC10 human PDX tumors was 217149 and 705678 and 861620 and 155219 and 311738 and 1148786 and 651132 and 524503 and 645010 and 362873 and 336536 and 501004 and 447832 and 108773 and 210759 and 520769 and 406359 and 125675 and 423935 and 547504. Besides, the “Bulk modulus (stiffness) by unconfined compression testing” value in the test with APMA human PDX tumors was 1.617 and 12.779 and 4.886 and 20.468 and 19.194 and 15.624 and 4.142 and 7.216 and 19.443.

Turning to `Nc1ccn([C@@H]2O[C@H](CO)[C@@H](O)C2(F)F)c(=O)n1` [Gem, gemcitabine], the “FITC-dextran (10 kDa) signal quantification” value with TKCC10 human PDX tumors is 94281 and 105741 and 104921 and 268246 and 141904 and 94336 and 85811 and 123546 and 103971 and 163288 and 111668 and 293663 and 289768 and 460793 and 155579 and 95059 and 92172 and 111389 and 85819 and 99312. Also, in the test with TKCC10 human PDX tumors (TKCC10 model), the “FITC-dextran signal (tumor perfusion)” value is “significantly reduced FITC signal”. The tumor stiffness result in the test on APMA human PDX tumors (APMA human PDX, three rounds of treatment) is reported as “increase in tumor stiffness”. Also, in the test on APMA human PDX tumors, the “Bulk modulus (stiffness) by unconfined compression testing” value was 269.794 and 256.26 and 76.734 and 111.802 and 206.587 and 133.731 and 307.593 and 168.407 and 179.416 and 246.898.

The record behind these values is publication PMC10518255, “A first-in-class pan-lysyl oxidase inhibitor impairs stromal remodeling and enhances gemcitabine response and survival in pancreatic cancer” (Nature Cancer, 2023).
